According to patent US20130157954A1, “METHODS FOR TREATMENT OR PROPHYLAXIS OF KIDNEY OR LIVER DYSFUNCTION” (NPS PHARMACEUTICALS, INC., priority 2010, published 2013):

Assay: Example 1: kidney biomarkers (urea nitrogen, creatinine, GFR) in short bowel syndrome patients, every four weeks for 24 weeks; also sorted by >5% change from baseline
Type: in vivo, Human
Set-up: CREATININE (RATE BLANKED) Change from Baseline Median / GFR Median / GFR Change from Baseline Median / UREA NITROGEN Median / UREA NITROGEN Change from Baseline Median: unit not given here
Details: for CREATININE (RATE BLANKED) change from baseline <−5%, number of patients / CREATININE (RATE BLANKED) change from baseline <−5%, percent of patients / CREATININE (RATE BLANKED) change from baseline >5%, number of patients / CREATININE (RATE BLANKED) change from baseline >5%, percent of patients / CREATININE (RATE BLANKED) change from baseline −5% <= and <=5%, number of patients / CREATININE (RATE BLANKED) change from baseline −5% <= and <=5%, percent of patients / GFR change from baseline <−5%, number of patients / GFR change from baseline <−5%, percent of patients / GFR change from baseline >5%, number of patients / GFR change from baseline >5%, percent of patients / GFR change from baseline −5% <= and <=5%, number of patients / GFR change from baseline −5% <= and <=5%, percent of patients / UREA NITROGEN change from baseline <−5%, number of patients / UREA NITROGEN change from baseline <−5%, percent of patients / UREA NITROGEN change from baseline >5%, number of patients / UREA NITROGEN change from baseline >5%, percent of patients / UREA NITROGEN change from baseline −5% <= and <=5%, number of patients / UREA NITROGEN change from baseline −5% <= and <=5%, percent of patients: 0.1 mg/kg/day
Experimental: Human patients with short bowel syndrome were divided into three groups: a control group (16 total individuals) to receive placebo, an experimental group (35 total individuals) to receive teduglutide at 0.05 mg/kg/day throughout the study, and an experimental group (32 total individuals) to receive teduglutide at 0.1 mg/kg/day throughout the study. Patients were treated by subcutaneous injection of placebo or the appropriate dose of teduglutide. As individuals with short bowel syndrome are likely to experience associated liver and kidney disease, known biomarkers of liver and kidney function were monitored every four weeks, for 24 weeks. The liver biomarkers tested included total bilirubin, ALT and AST and ALP. The kidney biomarkers tested included urea nitrogen, creatinine and GFR. Before administration of placebo or teduglutide, diagnostic biomarker levels were tested to establish a baseline for each individual.
To visualize the effect of GLP-2 on the levels of the diagnostic biomarkers, the average change from baseline was calculated for the placebo and teduglutide treated groups for each visit after a baseline was established. The average change from baseline of each group is depicted in FIGS. 1-7. The numerical figures for each diagnostic biomarker at each time point are depicted in Table 1.
The raw data for this sorting is reproduced in Table 2 below.

CC[C@H](C)[C@H](NC(=O)[C@H](Cc1ccccc1)NC(=O)[C@H](CC(=O)O)NC(=O)[C@H](CCCNC(=N)N)NC(=O)[C@H](C)NC(=O)[C@H](C)NC(=O)[C@H](CC(C)C)NC(=O)[C@H](CC(N)=O)NC(=O)[C@H](CC(=O)O)NC(=O)[C@H](CC(C)C)NC(=O)[C@@H](NC(=O)[C@@H](NC(=O)[C@H](CC(N)=O)NC(=O)[C@H](CCSC)NC(=O)[C@H](CCC(=O)O)NC(=O)[C@H](CC(=O)O)NC(=O)[C@H](CO)NC(=O)[C@H](Cc1ccccc1)NC(=O)[C@H](CO)NC(=O)CNC(=O)[C@H](CC(=O)O)NC(=O)CNC(=O)[C@@H](N)Cc1c[nH]cn1)[C@@H](C)O)[C@@H](C)CC)C(=O)N[C@@H](CC(N)=O)C(=O)N[C@@H](Cc1c[nH]c2ccccc12)C(=O)N[C@@H](CC(C)C)C(=O)N[C@H](C(=O)N[C@@H](CCC(N)=O)C(=O)N[C@H](C(=O)N[C@@H](CCCCN)C(=O)N[C@H](C(=O)N[C@H](C(=O)N[C@@H](CC(=O)O)C(=O)O)[C@@H](C)O)[C@@H](C)CC)[C@@H](C)O)[C@@H](C)CC [teduglutide]
CREATININE (RATE BLANKED) Change from Baseline Median (0.10 mg/kg/day, DW4): −0.5 | CREATININE (RATE BLANKED) Median (0.10 mg/kg/day, DW4): 83 µmol/L | GFR Change from Baseline Median (0.10 mg/kg/day, DW4): 3.1 | UREA NITROGEN Change from Baseline Median (0.10 mg/kg/day, DW4): 0.2 | UREA NITROGEN Median (0.10 mg/kg/day, DW4): 6.3 | CREATININE (RATE BLANKED) Change from Baseline Median (0.10 mg/kg/day, DW8): 0.0 | CREATININE (RATE BLANKED) Median (0.10 mg/kg/day, DW8): 86 µmol/L | GFR Change from Baseline Median (0.10 mg/kg/day, DW8): 0.2 | UREA NITROGEN Change from Baseline Median (0.10 mg/kg/day, DW8): 0.1 | UREA NITROGEN Median (0.10 mg/kg/day, DW8): 6.4 | CREATININE (RATE BLANKED) Change from Baseline Median (0.10 mg/kg/day, DW12): 6.5 | GFR Change from Baseline Median (0.10 mg/kg/day, DW12): −0.5 | UREA NITROGEN Change from Baseline Median (0.10 mg/kg/day, DW12): 0.0 | UREA NITROGEN Median (0.10 mg/kg/day, DW12): 5.9 | CREATININE (RATE BLANKED) Change from Baseline Median (0.10 mg/kg/day, DW16): 0.0 | GFR Change from Baseline Median (0.10 mg/kg/day, DW16): 1.1 | UREA NITROGEN Change from Baseline Median (0.10 mg/kg/day, DW16): 0.0 | UREA NITROGEN Median (0.10 mg/kg/day, DW16): 6.1 | CREATININE (RATE BLANKED) Change from Baseline Median (0.10 mg/kg/day, DW20): 0.0 | CREATININE (RATE BLANKED) Median (0.10 mg/kg/day, DW20): 88 µmol/L | GFR Change from Baseline Median (0.10 mg/kg/day, DW20): 1.5 | UREA NITROGEN Change from Baseline Mean (SD) (0.10 mg/kg/day, DW20): −0.0 (1.60) | UREA NITROGEN Change from Baseline Median (0.10 mg/kg/day, DW20): −0.1 | UREA NITROGEN Median (0.10 mg/kg/day, DW20): 6.0 | CREATININE (RATE BLANKED) Change from Baseline Median (0.10 mg/kg/day, DW 24): 0.0 | CREATININE (RATE BLANKED) Median (0.10 mg/kg/day, DW 24): 81 µmol/L | GFR Change from Baseline Median (0.10 mg/kg/day, DW 24): 2.3 | UREA NITROGEN Change from Baseline Median (0.10 mg/kg/day, DW 24): 0.3 | UREA NITROGEN Median (0.10 mg/kg/day, DW 24): 5.9 | CREATININE (RATE BLANKED) change from baseline <−5%, number of patients (week 4): 12 | CREATININE (RATE BLANKED) change from baseline <−5%, percent of patients (week 4): (37.5%) | CREATININE (RATE BLANKED) change from baseline >5%, number of patients (week 4): 7 | CREATININE (RATE BLANKED) change from baseline >5%, percent of patients (week 4): (21.9%) | CREATININE (RATE BLANKED) change from baseline −5% <= and <=5%, number of patients (week 4): 13 | CREATININE (RATE BLANKED) change from baseline −5% <= and <=5%, percent of patients (week 4): (40.6%) | GFR change from baseline <−5%, number of patients (week 4): 7 | GFR change from baseline <−5%, percent of patients (week 4): (21.9%) | GFR change from baseline >5%, number of patients (week 4): 14 | GFR change from baseline >5%, percent of patients (week 4): (43.8%) | GFR change from baseline −5% <= and <=5%, number of patients (week 4): 11 | GFR change from baseline −5% <= and <=5%, percent of patients (week 4): (34.4%) | UREA NITROGEN change from baseline <−5%, number of patients (week 4): 10 | UREA NITROGEN change from baseline <−5%, percent of patients (week 4): (31.3%) | UREA NITROGEN change from baseline >5%, number of patients (week 4): 15 | UREA NITROGEN change from baseline >5%, percent of patients (week 4): (46.9%) | UREA NITROGEN change from baseline −5% <= and <=5%, number of patients (week 4): 7 | UREA NITROGEN change from baseline −5% <= and <=5%, percent of patients (week 4): (21.9%) | CREATININE (RATE BLANKED) change from baseline <−5%, number of patients (week 8): 8 | CREATININE (RATE BLANKED) change from baseline <−5%, percent of patients (week 8): (25.0%) | CREATININE (RATE BLANKED) change from baseline >5%, number of patients (week 8): 13 | CREATININE (RATE BLANKED) change from baseline >5%, percent of patients (week 8): (40.6%) | CREATININE (RATE BLANKED) change from baseline −5% <= and <=5%, number of patients (week 8): 10 | CREATININE (RATE BLANKED) change from baseline −5% <= and <=5%, percent of patients (week 8): (31.3%) | GFR change from baseline <−5%, number of patients (week 8): 9 | GFR change from baseline <−5%, percent of patients (week 8): (28.1%) | GFR change from baseline >5%, number of patients (week 8): 9 | GFR change from baseline >5%, percent of patients (week 8): (28.1%) | GFR change from baseline −5% <= and <=5%, number of patients (week 8): 13 | GFR change from baseline −5% <= and <=5%, percent of patients (week 8): (40.6%) | UREA NITROGEN change from baseline <−5%, number of patients (week 8): 9 | UREA NITROGEN change from baseline <−5%, percent of patients (week 8): (28.1%) | UREA NITROGEN change from baseline >5%, number of patients (week 8): 15 | UREA NITROGEN change from baseline >5%, percent of patients (week 8): (46.9%) | UREA NITROGEN change from baseline −5% <= and <=5%, number of patients (week 8): 7 | UREA NITROGEN change from baseline −5% <= and <=5%, percent of patients (week 8): (21.9%) | CREATININE (RATE BLANKED) change from baseline <−5%, number of patients (week 12): 9 | CREATININE (RATE BLANKED) change from baseline <−5%, percent of patients (week 12): (28.1%) | CREATININE (RATE BLANKED) change from baseline >5%, number of patients (week 12): 17 | CREATININE (RATE BLANKED) change from baseline >5%, percent of patients (week 12): (53.1%)
